One data set in a line: in vivo. Further details: species or system souris. The settings on record: mouse, ip, 100 mg/kg. How it is done: (§1) Ainsi, l'administration à des souris hybrides CDF1 saines, en une injection unique par la voie intrapéritonéale, de doses croissantes des composés à tester (5 mg, 10 mg, 20 mg, 40 mg/kg) a permis de constater que, à ces doses, les produits étaient parfaitement tolérés puisque le taux de survivants était de 100 p. 100.
(§2) Dans les mêmes conditions, administrés à des souris BDF1 saines, les taux de survivants étaient de 100 p. 100 jusqu'à 100 mg/kg pour les dérivés 1, 3 et 9 et jusqu'à 200 mg/kg pour les dérivés 2 et 8.

A further data set has as its system leucémie P 388. It counts as in vivo, souris hybrides CDF1. The settings on record: for Survivants: at day J 40. The source says: (§3) L'activité antitumorale a été testée in vivo sur différentes tumeurs selon le protocole général suivant : Toutes les souris mâles ou femelles sont inoculées par voie intrapéritonéale au jour Jo avec une quantité déterminée de cellules tumorales viables, variable selon la tumeur.
(§4) Elles sont ensuite réparties en différents lots. Chaque lot correspondant aux animaux traités par le produit à tester à une dose déterminée est composé de lO souris. Dans ce cas, le produit à tester est dissous dans l'eau distillée et il est administré, pendant n jours (J1-Jn) variables selon le protocole choisi, par voie intrapéritonéale à raison de 0,1 ml par lO g de poids des souris traitées, les doses du produit administré étant précisées dans les tableaux ci-dessous.
(§5) Le lot "Contrôle négatif", correspondant aux animaux qui ne sont pas traités par un produit, comprend 2 √N animaux, N étant égal au nombre total de souris traitées par un produit.
(§6) Enfin, tous lés essais sont conduits parallèlement à l'étude d'un lot appelé "Contrôle positif" de 10 animaux qui est traité par une molécule active, variable selon le protocole choisi, dans les mêmes conditions que les lots traités par le produit à tester, afin de valider l'essai.
(§7) L'activité antitumorale est évaluée en considérant l'augmentation du temps de survie des animaux traités par rapport à celui des animaux du lot "Contrôle négatif" selon la formule : • Jour médian de survie des animaux traités à une T/C = dose donnée de produit x 100 • Jour médian de survie des animaux "Contrôle négatif"
(§8) Un composé est considéré comme étant actif lorsque la valeur du rapport T/C est égale ou supérieure à 125 % selon le protocole retenu. Il est toxique lorsque cette valeur est égale ou inférieure à 85 %. Le produit est également considéré comme toxique lorsque la variation pondérale, exprimée en grammes et calculée par la formule : Poids moyen du lot mesuré au jour 5 - poids moyen du même lot au jour 1, est égale ou inférieure à -4g . a) Test de la leucémie P 388 (GERAN et al., Cancer Chemother, 1972, 2, 07-57).
Les essais sont effectués avec des souris hybrides CDF1 inoculées par voie intrapéritonéale avec […] leucémiques de la lignée P 388. Le composé à tester est administré pendant 5 jours (Jl-J5). Le contrôle positif du test est le 5-fluorouracile qui est administré dans les mêmes conditions.
[…] Un composé est considéré comme étant actif lorsque le rapport T/C est supérieur à 127 %.

Data set [1] relates to lignée tumorale leucémie L 1210. Description: In vitro cytotoxicity on L 1210 leukemia cell culture. It counts as cell-based. The settings on record: concentration inhibiting cell proliferation by 50 p. 100, after 48 h contact, read-out: ID 50 (the source's name). How it is done:
1) In vitro : (PAOLETTI et al., Chem. Biol. Interaction, 1979, 25, 45-58).
L'activité cytotoxique des composés de l'invention a été évaluée par des essais in vitro. Ces essais consistent à ajouter des concentrations croissantes du composé à tester à une culture cellulaire de la lignée tumorale leucémie L 1210 en phase exponentielle de croissance. Les cellules sont incubées à 37°C dans une étuve à C02 et comptées toutes les 24 heures. Le calcul de l'ID 50 (concentration du produit exprimée en micromole 1^-1 qui inhibe la prolifération cellulaire à 50 p. 100) est effectué après 48 heures de contact. Ainsi déterminées, les ID 50 des composés de l'invention sont rassemblées dans le tableau I ci-après : […]

Another data set deals with mélanome B 16. In words: B 16 melanoma test in vivo. Also noted: species or system souris hybrides BDF1; Jour médian de survie: unit not given here. The settings on record: for Survivants: at day J 60.
Description: as §3, §4, §5, §6, §7, §8
c) Test du mélanome B 16 (GERAN et al., Cancer Chemother, 1972, 2, 07-57).
Les essais sont effectués avec des souris hybrides BDF1 inoculées avec O,5 ml d'un homogénat de mélanome B 16 réalisé à partir de 1 g de tumeur dans 10 ml de sérum physiologique. Le composé à tester est administré pendant 9 jours (J1-J9). Le contrôle positif du test est le Cis- platine administré dans les mêmes conditions. Le nombre d'animaux survivants est évalué au jour J 60. Un composé est considéré comme étant actif lorsque le rapport T/C est supérieur ou égal à 125 %.

The subject of the next data set is souris BDF1 saines. Description: in vivo. The settings on record: mouse, ip, 200 mg/kg. The protocol:
as §1, §2

Read-outs that look alike come from different tables or passages of the source.

`CCN(CC)CCCNc1ncc(C)c2[nH]c3ccncc3c12` [Dérivé N° 1, [(diéthylamino-3 propyl-1)amino]-1 méthyl-4 5-H pyrido[3',4':4,5]pyrrolo[3,2-c]pyridine]: the survival in the data set “in vivo” stood at 100%. Also, the “Jour médian de survie” value with leucémie P 388 (5 mg/kg i.p. J1-J5) is 14,1; in the data set with leucémie P 388 (10 mg/kg i.p. J1-J5), 14,6; with leucémie P 388 (20 mg/kg i.p. J1-J5), 15,9; in the data set on leucémie P 388 (40 mg/kg i.p. J1-J5) it was 16,6; in the data set with leucémie P 388 (50 mg/kg i.p. J1-J5), 3,1; in the data set with mélanome B 16 (5 mg/kg i.p. J1-J9), 28,25. The “Jour médian de survie” value with mélanome B 16 (10 mg/kg i.p. J1-J9) is 30,0; in the data set with mélanome B 16 (20 mg/kg i.p. J1-J9) it was 34,25. The T/C % in the data set with leucémie P 388 (5 mg/kg i.p. J1-J5) was found to be 132%; in the data set on leucémie P 388 (10 mg/kg i.p. J1-J5), 136%; in the data set with leucémie P 388 (20 mg/kg i.p. J1-J5), 148%; in the data set on leucémie P 388 (40 mg/kg i.p. J1-J5), 155%; with leucémie P 388 (50 mg/kg i.p. J1-J5) it was 26%; in the data set with mélanome B 16 (5 mg/kg i.p. J1-J9) it was 119%. Moreover, the T/C % in the data set with mélanome B 16 (10 mg/kg i.p. J1-J9) stood at 126%; with mélanome B 16 (20 mg/kg i.p. J1-J9), 144%. The Survivants in the data set on leucémie P 388 (5 mg/kg i.p. J1-J5) is recorded as 0/10; in the data set with leucémie P 388 (10 mg/kg i.p. J1-J5) it was 0/10; with leucémie P 388 (20 mg/kg i.p. J1-J5) it was 0/10; with leucémie P 388 (40 mg/kg i.p. J1-J5) it was 0/10; in the data set with leucémie P 388 (50 mg/kg i.p. J1-J5), 0/10; in the data set with mélanome B 16 (5 mg/kg i.p. J1-J9), 0. In addition, the Survivants with mélanome B 16 (10 mg/kg i.p. J1-J9) and with mélanome B 16 (20 mg/kg i.p. J1-J9) was 0 throughout. Also, the IC50 in data set [1] (Mus musculus, L1210) is 340 nM.

In turn, “diméthyl-4,5[(éthylamino-3 propyl-1)amino]-1 5-H pyrido[3',4':4,5]pyrrolo[3,2-c]pyridine [Dérivé N° 8]” gave a taux de survivants in the data set with souris BDF1 saines of 100 p. 100. The “Jour médian de survie” value in the data set on leucémie P 388 (5 mg/kg i.p. J1-J5) is listed as 13,4; in the data set with leucémie P 388 (10 mg/kg i.p. J1-J5) it was 14,62; with leucémie P 388 (20 mg/kg i.p. J1-J5) it was 16,75; in the data set on leucémie P 388 (40 mg/kg i.p. J1-J5), 16,0; with leucémie P 388 (80 mg/kg i.p. J1-J5) it was 17,25. Further, the T/C % with leucémie P 388 (5 mg/kg i.p. J1-J5) is listed as 116%; with leucémie P 388 (10 mg/kg i.p. J1-J5) it was 127%; with leucémie P 388 (20 mg/kg i.p. J1-J5), 145%; in the data set with leucémie P 388 (40 mg/kg i.p. J1-J5), 138%; with leucémie P 388 (80 mg/kg i.p. J1-J5), 149%. Also, the Survivants in the data set with leucémie P 388 (5 mg/kg i.p. J1-J5), in the data set with leucémie P 388 (10 mg/kg i.p. J1-J5), in the data set on leucémie P 388 (20 mg/kg i.p. J1-J5), in the data set on leucémie P 388 (40 mg/kg i.p. J1-J5) and in the data set on leucémie P 388 (80 mg/kg i.p. J1-J5) was 0 each time. For the same compound, in data set [1], the IC50 came to 3800 nM.

The values above are taken from patent publication EP0197829A1, “5H-pyrido[3',4':4,5]pyrrolo[3,2-c]pyridine derivatives, process for their preparation and their antitunour activity” (SANOFI, priority 1985, dated 1986).
